In ChEMBL document CHEMBL3885861, “Open TG-GATES”:

Organism: Rattus norvegicus
Experiment: Open TG-GATES - Regimen: Daily Repeat
Type: toxicity, organism-based, Sprague-Dawley
Set-up: regimen Daily Repeat, gender Male, age 6 weeks
Details: in vivo, po, 300 mg/kg, route gavage, dose level Middle; for APTT / Bas / Eos / Fbg / Hb / Ht / Lym / MCH / MCHC / MCV / Mono / Neu / PT / Plat / RBC / Ret / WBC: tissue Blood; for KIDNEY_L / KIDNEY_R / KIDNEY_TOTAL: tissue Kidney; for LIVER: tissue Liver; for A/G / ALP / ALT / AST / BUN / CRE / Ca / Cl / DBIL / GLC / IP / K / LDH / Na / PL / RALB / TBIL / TC / TG / TP / gamma-GTP: tissue Plasma

With O=C(OC[C@H]1O[C@@H](OC(=O)c2cc(O)c(O)c(OC(=O)c3cc(O)c(O)c(O)c3)c2)[C@H](OC(=O)c2cc(O)c(O)c(OC(=O)c3cc(O)c(O)c(O)c3)c2)[C@@H](OC(=O)c2cc(O)c(O)c(OC(=O)c3cc(O)c(O)c(O)c3)c2)[C@@H]1OC(=O)c1cc(O)c(O)c(OC(=O)c2cc(O)c(O)c(O)c2)c1)c1cc(O)c(O)c(OC(=O)c2cc(O)c(O)c(O)c2)c1 [TANNIC ACID] the TERMINAL_BW (72 h, time 3 day) was 215.8 g, the APTT (72 h, time 3 day) was 16.1 s and the Bas (72 h, time 3 day) was 0%. For the same compound, the Eos (72 h, time 3 day) was 1%, the Fbg (72 h, time 3 day) was 240.8 mg/dL and the Hb (72 h, time 3 day) was 13.1 g/dL. For the same compound, the Ht (72 h, time 3 day) was 39.3%, the Lym (72 h, time 3 day) was 76.8% and the MCH (72 h, time 3 day) was 21.6 pg. For the same compound, the MCHC (72 h, time 3 day) was 33.3%, the MCV (72 h, time 3 day) was 64.9 fL and the Mono (72 h, time 3 day) was 10%. It also gave a Neu (72 h, time 3 day) of 12.4%, a PT (72 h, time 3 day) of 11.5 s and a Plat (72 h, time 3 day) of 118.8 x10_4/uL. The RBC (72 h, time 3 day) was 606.2 x10_4/ul, the Ret (72 h, time 3 day) was 7.7% and the WBC (72 h, time 3 day) was 77.2 x10_2/uL. It also gave a KIDNEY_L (72 h, time 3 day) of 1 g, a KIDNEY_R (72 h, time 3 day) of 1 g and a KIDNEY_TOTAL (72 h, time 3 day) of 1.9 g. For the same compound, the LIVER (72 h, time 3 day) was 10.9 g, the A/G (72 h, time 3 day) was 2.1 and the ALP (72 h, time 3 day) was 808.4 IU/L. For the same compound, the ALT (72 h, time 3 day) was 35 IU/L, the AST (72 h, time 3 day) was 62.8 IU/L and the BUN (72 h, time 3 day) was 17.8 mg/dL. It also gave a CRE (72 h, time 3 day) of 0.5 mg/dL, a Ca (72 h, time 3 day) of 10.9 mg/dL and a Cl (72 h, time 3 day) of 103.4 meq/L. It also gave a DBIL (72 h, time 3 day) of 0.004 mg/dL, a GLC (72 h, time 3 day) of 207.6 mg/dL and an IP (72 h, time 3 day) of 8.7 mg/dL. It also gave a K (72 h, time 3 day) of 4.6 meq/L, an LDH (72 h, time 3 day) of 83 IU/L and a Na (72 h, time 3 day) of 139 meq/L. It also gave a PL (72 h, time 3 day) of 159.2 mg/dL, an RALB (72 h, time 3 day) of 3.8 g/dL and a TBIL (72 h, time 3 day) of 0.3 mg/dL. It also gave a TC (72 h, time 3 day) of 84.6 mg/dL, a TG (72 h, time 3 day) of 109.2 mg/dL and a TP (72 h, time 3 day) of 5.6 g/dL. The gamma-GTP (72 h, time 3 day) was 0.6 IU/L, the TERMINAL_BW ([…], time 7 day) was 250.4 g and the TERMINAL_BW ([…], time 14 day) was 315.8 g. It also gave a TERMINAL_BW ([…], time 28 day) of 397.8 g, an APTT ([…], time 7 day) of 17.1 s and a Bas ([…], time 7 day) of 0%. The Eos ([…], time 7 day) was 1.4%, the Fbg ([…], time 7 day) was 226 mg/dL and the Hb ([…], time 7 day) was 13.4 g/dL. The Ht ([…], time 7 day) was 40.6%, the Lym ([…], time 7 day) was 81.2% and the MCH ([…], time 7 day) was 21.3 pg. For the same compound, the MCHC ([…], time 7 day) was 33.1%, the MCV ([…], time 7 day) was 64.2 fL and the Mono ([…], time 7 day) was 4.8%. For the same compound, the Neu ([…], time 7 day) was 12.8%, the PT ([…], time 7 day) was 10.9 s and the Plat ([…], time 7 day) was 123.2 x10_4/uL. It also gave an RBC ([…], time 7 day) of 631.8 x10_4/ul, a Ret ([…], time 7 day) of 6.5% and a WBC ([…], time 7 day) of 103.7 x10_2/uL. For the same compound, the APTT ([…], time 14 day) was 16.7 s, the Bas ([…], time 14 day) was 0% and the Eos ([…], time 14 day) was 1.2%. It also gave a Fbg ([…], time 14 day) of 261.2 mg/dL, a Hb ([…], time 14 day) of 13.7 g/dL and a Ht ([…], time 14 day) of 41.1%. For the same compound, the Lym ([…], time 14 day) was 75.4%, the MCH ([…], time 14 day) was 20.7 pg and the MCHC ([…], time 14 day) was 33.4%. For the same compound, the MCV ([…], time 14 day) was 62.1 fL, the Mono ([…], time 14 day) was 8% and the Neu ([…], time 14 day) was 15.4%. It also gave a PT ([…], time 14 day) of 11.5 s, a Plat ([…], time 14 day) of 123.3 x10_4/uL and an RBC ([…], time 14 day) of 662.6 x10_4/ul. For the same compound, the Ret ([…], time 14 day) was 5.5%, the WBC ([…], time 14 day) was 101.9 x10_2/uL and the APTT ([…], time 28 day) was 16.6 s. It also gave a Bas ([…], time 28 day) of 0%, an Eos ([…], time 28 day) of 1.8% and a Fbg ([…], time 28 day) of 232.8 mg/dL. It also gave a Hb ([…], time 28 day) of 15 g/dL, a Ht ([…], time 28 day) of 45.2% and a Lym ([…], time 28 day) of 77.8%. The MCH ([…], time 28 day) was 19.6 pg, the MCHC ([…], time 28 day) was 33.2% and the MCV ([…], time 28 day) was 59.1 fL. It also gave a Mono ([…], time 28 day) of 6.2%, a Neu ([…], time 28 day) of 14.5% and a PT ([…], time 28 day) of 11.9 s. It also gave a Plat ([…], time 28 day) of 113.3 x10_4/uL, an RBC ([…], time 28 day) of 765.2 x10_4/ul and a Ret ([…], time 28 day) of 3%. It also gave a WBC ([…], time 28 day) of 112.2 x10_2/uL, a KIDNEY_L ([…], time 7 day) of 1 g and a KIDNEY_R ([…], time 7 day) of 1 g. It also gave a KIDNEY_TOTAL ([…], time 7 day) of 2.1 g, a KIDNEY_L ([…], time 14 day) of 1.4 g and a KIDNEY_R ([…], time 14 day) of 1.3 g. For the same compound, the KIDNEY_TOTAL ([…], time 14 day) was 2.7 g, the KIDNEY_L ([…], time 28 day) was 1.4 g and the KIDNEY_R ([…], time 28 day) was 1.4 g. The KIDNEY_TOTAL ([…], time 28 day) was 2.9 g, the LIVER ([…], time 7 day) was 12.2 g and the LIVER ([…], time 14 day) was 14.7 g. It also gave an LIVER ([…], time 28 day) of 17 g, an A/G ([…], time 7 day) of 1.6 and an ALP ([…], time 7 day) of 926.8 IU/L. For the same compound, the ALT ([…], time 7 day) was 35.8 IU/L, the AST ([…], time 7 day) was 62.2 IU/L and the BUN ([…], time 7 day) was 19.4 mg/dL. The CRE ([…], time 7 day) was 0.6 mg/dL, the Ca ([…], time 7 day) was 10.8 mg/dL and the Cl ([…], time 7 day) was 103 meq/L. The DBIL ([…], time 7 day) was 0.016 mg/dL, the GLC ([…], time 7 day) was 205.6 mg/dL and the IP ([…], time 7 day) was 7.9 mg/dL. It also gave a K ([…], time 7 day) of 4.5 meq/L, an LDH ([…], time 7 day) of 98.6 IU/L and a Na ([…], time 7 day) of 137.4 meq/L. The PL ([…], time 7 day) was 154.6 mg/dL, the RALB ([…], time 7 day) was 3.7 g/dL and the TBIL ([…], time 7 day) was 0.4 mg/dL. For the same compound, the TC ([…], time 7 day) was 81.2 mg/dL, the TG ([…], time 7 day) was 119.6 mg/dL and the TP ([…], time 7 day) was 6.1 g/dL. The gamma-GTP ([…], time 7 day) was 1.6 IU/L, the A/G ([…], time 14 day) was 1.7 and the ALP ([…], time 14 day) was 702.2 IU/L. It also gave an ALT ([…], time 14 day) of 32.4 IU/L, an AST ([…], time 14 day) of 62.8 IU/L and a BUN ([…], time 14 day) of 20 mg/dL. For the same compound, the CRE ([…], time 14 day) was 0.6 mg/dL, the Ca ([…], time 14 day) was 10.7 mg/dL and the Cl ([…], time 14 day) was 103.4 meq/L. It also gave a DBIL ([…], time 14 day) of 0.008 mg/dL, a GLC ([…], time 14 day) of 202.4 mg/dL and an IP ([…], time 14 day) of 8.3 mg/dL. It also gave a K ([…], time 14 day) of 4.4 meq/L, an LDH ([…], time 14 day) of 83.4 IU/L and a Na ([…], time 14 day) of 139.8 meq/L. The PL ([…], time 14 day) was 151.6 mg/dL, the RALB ([…], time 14 day) was 3.8 g/dL and the TBIL ([…], time 14 day) was 0.3 mg/dL. The TC ([…], time 14 day) was 79.6 mg/dL, the TG ([…], time 14 day) was 116.8 mg/dL and the TP ([…], time 14 day) was 6 g/dL. It also gave a gamma-GTP ([…], time 14 day) of 1.4 IU/L, an A/G ([…], time 28 day) of 1.8 and an ALP ([…], time 28 day) of 534 IU/L. It also gave an ALT ([…], time 28 day) of 32.2 IU/L, an AST ([…], time 28 day) of 55.5 IU/L and a BUN ([…], time 28 day) of 20 mg/dL. For the same compound, the CRE ([…], time 28 day) was 0.6 mg/dL, the Ca ([…], time 28 day) was 11 mg/dL and the Cl ([…], time 28 day) was 105.8 meq/L. The DBIL ([…], time 28 day) was 0.01 mg/dL, the GLC ([…], time 28 day) was 201.8 mg/dL and the IP ([…], time 28 day) was 7.9 mg/dL. The K ([…], time 28 day) was 4.5 meq/L, the LDH ([…], time 28 day) was 83.2 IU/L and the Na ([…], time 28 day) was 139.5 meq/L. The PL ([…], time 28 day) was 141.8 mg/dL, the RALB ([…], time 28 day) was 4 g/dL and the TBIL ([…], time 28 day) was 0.3 mg/dL. For the same compound, the TC ([…], time 28 day) was 70.2 mg/dL, the TG ([…], time 28 day) was 133.8 mg/dL and the TP ([…], time 28 day) was 6.2 g/dL. The gamma-GTP ([…], time 28 day) was 0.5 IU/L.
